From ChEMBL document CHEMBL6178014, “Discovery and Administration Optimization of Novel Selective CDK9 Inhibitor, 1-7a-B1, for Improved Pharmacokinetics and Antitumor Efficacy In Vivo” (J Med Chem, 2025)
Calls of active or inactive are those of the source. The calls are words filed in the database; no cut-off is given here.

Columns and labels:
[1] = Toxicity in female BALB/c nu-nu mouse xenografted with human HCT-116 cells assessed as histopathological changes in lung at 40 mg/kg, po administered once daily for 3 weeks by H and E staining based analysis; assay type: organism-based; details: in vivo, 504 h
[2] = Volume of distribution in Sprague-Dawley rat at 2 mg/kg, iv measured after 24 hrs by LC-MS/MS analysis; assay type: ADME, organism-based; details: in vivo
[3] = test system: NCM460; experiment: Cytotoxicity against human NCM460 cells assessed as cell viability incubated for 48 hrs by CCK8 assay; assay type: toxicity, cell-based; details: ncm460, 48 h
[4] = Metabolic stability in human liver microsome assessed as intrinsic clearance at 100 uM pre-incubated with compound for 60 mins followed by NADPH addition and measured up to 60 mins by LC-MS/MS analysis; assay type: ADME; details: liver microsomes, read-out: CLH
[5] = Volume of distribution in Sprague-Dawley rat at 30 mg/kg, po as submicron emulsion measured after 24 hrs by LC-MS/MS analysis; assay type: ADME, organism-based; details: in vivo
[6] = Clearance in Sprague-Dawley rat at 2 mg/kg, iv measured after 24 hrs by LC-MS/MS analysis; assay type: ADME, organism-based; details: in vivo
[7] = Toxicity in female BALB/c nu-nu mouse xenografted with human HCT-116 cells assessed as histopathological changes in heart at 20 mg/kg, po as submicron emulsion administered once daily for 3 weeks by H and E staining based analysis; assay type: organism-based; details: in vivo, 504 h
[8] = test system: HCT-116; experiment: Downregulation of Bcl-2 mRNA level in human HCT-116 cells at 200 to 400 nM incubated for 48 hrs by qRT-PCR analysis; assay type: functional, cell-based; details: dose 200-400 nM
[9] = Half life in Sprague-Dawley rat at 2 mg/kg, iv measured after 24 hrs by LC-MS/MS analysis; assay type: ADME, organism-based; details: in vivo
[10] = test system: HepG2; experiment: Cytotoxicity against human HepG2 cells assessed as cell viability incubated for 48 hrs by CCK8 assay; assay type: functional, cell-based
[11] = Toxicity in female BALB/c nu-nu mouse xenografted with human HCT-116 cells assessed as histopathological changes in liver at 40 mg/kg, po administered once daily for 3 weeks by H and E staining based analysis; assay type: organism-based; details: in vivo, 504 h
[12] = test system: NCI-H226; experiment: Cytotoxicity against human NCI-H226 cells assessed as cell viability incubated for 48 hrs by CCK8 assay; assay type: functional, cell-based
[13] = test system: Mitochondrial membrane; experiment: Induction of mitochondrial membrane depolarization in human HCT-116 cells at 100 to 400 nM incubated for 48 hrs by JC-1 staining based flow cytometry analysis; assay type: cell membranes; details: dose 100-400 nM
[14] = Toxicity in female BALB/c nu-nu mouse xenografted with human HCT-116 cells assessed as body weight loss at 20 mg/kg, po as submicron emulsion administered once daily for 3 weeks; assay type: organism-based; details: in vivo, 504 h
[15] = test system: HCT-116; experiment: Downregulation of c-Myc mRNA level in human HCT-116 cells at 200 to 400 nM incubated for 48 hrs by qRT-PCR analysis; assay type: functional, cell-based; details: dose 200-400 nM
[16] = test system: HCT-116; experiment: Induction of cell cycle arrest in human HCT-116 cells assessed as accumulation of cells at S phase incubated for 48 hrs by PI/RNase staining based flow cytometry analysis; assay type: functional
[17] = target: CDK6/cyclin D3 (Homo sapiens, UniProt Q00534); experiment: Inhibition of CDK6/cycD3 (unknown origin) by ADP-Glo assay; assay type: protein-complex assay
[18] = test system: HCT-116; experiment: Antitumor activity against human HCT-116 cells xenografted in female BALB/c nu-nu mouse assessed as reduction in Ki67 positive cells at 40 mg/kg, po by staining based analysis; assay type: functional, organism-based
[19] = target: CDK4/Cyclin D3 (Homo sapiens, UniProt P11802); experiment: Inhibition of CDK4/cycD3 (unknown origin) by ADP-Glo assay; assay type: protein-complex assay
[20] = target: CYP2C9 (Homo sapiens, UniProt P11712); experiment: Inhibition of CYP2C9 in human liver microsome at 10 uM pre-incubated with compound for 10 mins in presence of NADPH-regenerating system by LC-MS/MS analysis relative to control; assay type: ADME; details: liver microsomes
[21] = test system: HCT-116; experiment: Antitumor activity against human HCT-116 cells xenografted in female BALB/c nu-nu mouse assessed as tumor growth inhibition at 40 mg/kg, po administered once daily for 3 weeks by vernier caliper analysis; assay type: functional, organism-based
[22] = test system: HCT-116; experiment: Antitumor activity against human HCT-116 cells xenografted in female BALB/c nu-nu mouse assessed as downregulation of Bcl-2 mRNA expression at 40 mg/kg, po incubated for 48 hrs by qRT-PCR analysis; assay type: functional, organism-based
[23] = test system: HCT-116; experiment: Antitumor activity against human HCT-116 cells xenografted in female BALB/c nu-nu mouse assessed as downregulation of c-Myc mRNA expression at 40 mg/kg, po incubated for 48 hrs by qRT-PCR analysis; assay type: functional, organism-based
[24] = test system: HCT-116; experiment: Inhibition of wild type p53/MDM2 protein-protein interaction in human HCT-116 cells at 200 nM incubated for 48 hrs by co-immunoprecipitation (Co-IP) analysis; assay type: cell-based
[25] = test system: A549; experiment: Cytotoxicity against human A549 cells assessed as cell viability incubated for 48 hrs by CCK8 assay; assay type: functional, cell-based
[26] = Metabolic stability in human liver assessed as intrinsic clearance at 100 uM pre-incubated with compound for 60 mins followed by NADPH addition and measured up to 60 mins by LC-MS/MS analysis; assay type: ADME, tissue-based; details: read-out: CLH
[27] = test system: HT-29; experiment: Antiproliferative activity against human HT-29 cells assessed as inhibition of cell growth incubated for 48 hrs by CCK8 assay; assay type: functional
[28] = test system: HCT-116; experiment: Induction of apoptosis in human HCT-116 cells assessed as increase in apoptotic cells by measuring red fluorescence by TUNEL staining based fluorescence microscopic analysis; assay type: functional, cell-based; details: dose 50-400 nM
[29] = Toxicity in female BALB/c nu-nu mouse xenografted with human HCT-116 cells assessed as histopathological changes in heart at 40 mg/kg, po administered once daily for 3 weeks by H and E staining based analysis; assay type: organism-based; details: in vivo, 504 h
[30] = Half life in Sprague-Dawley rat at 30 mg/kg, po as submicron emulsion measured after 24 hrs by LC-MS/MS analysis; assay type: ADME, organism-based; details: in vivo
[31] = Toxicity in female BALB/c nu-nu mouse xenografted with human HCT-116 cells assessed as body weight loss at 40 mg/kg, po administered once daily for 3 weeks; assay type: organism-based; details: in vivo, 504 h
[32] = target: CDK2/Cyclin A2 (Homo sapiens, UniProt P24941); experiment: Inhibition of CDK2/cyclA2 (unknown origin) by ADP-Glo assay; assay type: protein-complex assay
[33] = test system: HCT-116; experiment: Induction of cell senescence in human HCT-116 cells at 100 to 400 nM incubated for 48 hrs by beta-galactosidase staining based analysis; assay type: functional; details: dose 100-400 nM
[34] = Volume of distribution in Sprague-Dawley rat at 30 mg/kg, po measured after 24 hrs by LC-MS/MS analysis; assay type: ADME, organism-based; details: in vivo
[35] = test system: HCT-116; experiment: Upregulation of p21 expression in human HCT-116 cells at 100 to 400 nM incubated for 48 hrs by Western blot analysis; assay type: functional, cell-based; details: dose 100-400 nM
[36] = test system: HCT-116; experiment: Downregulation of Mcl-1 level in human HCT-116 cells at 200 to 400 nM incubated for 48 hrs by Western blot analysis; assay type: functional, cell-based; details: dose 200-400 nM

CDK4/Cyclin D3, sequence (P11802 whole entry): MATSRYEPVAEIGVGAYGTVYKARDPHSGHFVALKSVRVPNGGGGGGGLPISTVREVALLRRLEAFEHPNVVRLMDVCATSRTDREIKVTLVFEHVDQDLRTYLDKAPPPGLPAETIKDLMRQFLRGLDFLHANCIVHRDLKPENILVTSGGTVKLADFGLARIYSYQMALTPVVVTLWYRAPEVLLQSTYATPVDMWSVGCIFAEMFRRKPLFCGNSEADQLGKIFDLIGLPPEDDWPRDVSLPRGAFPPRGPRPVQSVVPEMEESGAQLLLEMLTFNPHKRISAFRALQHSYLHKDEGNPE
CDK4/Cyclin D3, sequence (P30281 whole entry, further chain): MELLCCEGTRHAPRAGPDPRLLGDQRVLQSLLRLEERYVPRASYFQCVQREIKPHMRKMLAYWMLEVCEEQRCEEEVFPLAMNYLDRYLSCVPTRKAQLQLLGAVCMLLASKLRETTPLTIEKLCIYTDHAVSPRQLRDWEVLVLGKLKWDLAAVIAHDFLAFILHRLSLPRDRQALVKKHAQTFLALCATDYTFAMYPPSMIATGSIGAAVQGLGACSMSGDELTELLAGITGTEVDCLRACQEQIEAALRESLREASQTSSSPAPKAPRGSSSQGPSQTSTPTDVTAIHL
CDK6/cyclin D3, sequence (P30281 whole entry): as the sequence (P30281 whole entry, further chain) above
CDK6/cyclin D3, sequence (Q00534 whole entry): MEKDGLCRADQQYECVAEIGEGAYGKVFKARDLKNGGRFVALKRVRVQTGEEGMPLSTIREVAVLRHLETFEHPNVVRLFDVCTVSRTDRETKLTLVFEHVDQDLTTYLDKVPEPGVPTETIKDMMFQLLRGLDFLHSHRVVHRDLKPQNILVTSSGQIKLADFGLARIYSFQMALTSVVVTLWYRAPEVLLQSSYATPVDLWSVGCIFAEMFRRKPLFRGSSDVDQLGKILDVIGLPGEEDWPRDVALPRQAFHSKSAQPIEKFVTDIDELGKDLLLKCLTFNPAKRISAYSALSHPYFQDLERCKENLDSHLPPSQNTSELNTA
CYP2C9, sequence (P11712 whole entry): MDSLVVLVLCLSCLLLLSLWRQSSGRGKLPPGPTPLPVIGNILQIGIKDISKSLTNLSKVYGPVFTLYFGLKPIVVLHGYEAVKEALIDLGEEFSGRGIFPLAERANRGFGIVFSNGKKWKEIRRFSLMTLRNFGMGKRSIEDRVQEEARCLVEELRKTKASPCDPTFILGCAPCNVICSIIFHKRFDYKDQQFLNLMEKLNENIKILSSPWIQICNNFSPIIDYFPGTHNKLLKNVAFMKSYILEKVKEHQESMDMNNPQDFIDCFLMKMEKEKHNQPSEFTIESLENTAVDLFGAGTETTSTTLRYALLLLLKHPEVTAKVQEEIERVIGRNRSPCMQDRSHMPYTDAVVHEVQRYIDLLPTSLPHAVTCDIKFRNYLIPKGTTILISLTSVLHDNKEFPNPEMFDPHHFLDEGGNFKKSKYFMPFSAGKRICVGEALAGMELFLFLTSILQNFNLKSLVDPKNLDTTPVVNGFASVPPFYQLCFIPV

CC(C)Oc1cc(F)ccc1-c1ccnc(NC(=O)Nc2cccc(C(=O)N3CCN(C)CC3)c2)c1
Activity [1]: Non-toxic
Vd [2]: 1.65 L/kg
Activity [3]: Toxic
microsomal CLint at 100 µM [4]: 352 µL/min/mg
Vd [5]: 6.52 L/kg
clearance [6]: 81.8 mL/min/kg
Activity [7]: Non-toxic
Activity [8]: Active
half-life [9]: 17.6 min
Activity [10]: Active
Activity [11]: Non-toxic
Activity [12]: Active
Activity [13]: Active
Activity [14]: Non-toxic
Activity [15]: Active
Activity [16]: Active
IC50 [17]: 7940 nM
Activity [18]: Active
IC50 [19]: 1820 nM
inhibition at 10 µM [20]: 15.9%
Activity [21]: Active
Activity [22]: Active
Activity [23]: Active
inhibition [24]: Active
Activity [25]: Active
CLint scaled at 100 µM [26]: 317 mL/min/kg
GI50 [27]: 190 nM
Activity [28]: Dose-dependent-effect
Activity [29]: Non-toxic
half-life [30]: 55.2 min
Activity [31]: Non-toxic
IC50 [32]: 1180 nM
Activity [33]: Active
Vd [34]: 5.54 L/kg
Activity [35]: Active
Activity [36]: Active
